# Measured values from US11186817B2, “Chemically defined cell culture media additive” (IUCF-HYU (INDUSTRY-UNIVERSITY COOPERATION FOUNDATION …, priority 2014, dated 2021).
# Tested on: CHO DG44 cell line
# Assay: Cell line growth in HY-CDM media supplemented with DHF
# Format: cell-based, Chinese hamster
# From the text: 1. Cell line and media: CHO DG44 cell line was used as a DHFR-deficient cell line. The cell line was passaged 80 times or more and suspension adapted in HY-CDM (in-house) media as chemically defined media. The suspension-adapted cell line was used to evaluate the influence of tetrahydrofolate (THF) and dihydrofolate (DHF) and the growth characteristics in commercial chemically defined media. The HY-CDM media were composed of chemically defined components only. Each HY-CDM medium further included a growth factor. HY-CDM media used in Examples 1, 3, and 4 were free of an animal derived lipid mixture, and HY-CDM media used in Example 2 were supplemented with cod liver oil.
# 2. Cell suspension culture: The cell line was inoculated at a density of 4×10^5 cells/ml and cultured in an Erlenmeyer flask with a 30 ml/125 ml working volume on an orbital shaker at 120 rpm under humidified conditions at 37° C. and 5% CO2. Before inoculation, the cells were centrifuged at 1,000 rpm (×162 g) for 5 min, the supernatant was discarded, and the remaining cells were dispersed into single cells in the heated medium. The cells were passaged three times to minimize the influence of the remaining medium under the experimental conditions. The subcultured cells were evaluated.
# 3. Density of live cells: The density of live cells was analyzed using a hemocytometer (Neubauer improved bright-line, Marienfeld, Germany), an inverted microscope (CK30, Olympus, Japan), and trypan blue dye exclusion.
# DHF was used at the same concentrations as THF. The addition of DHF at concentrations of […] improved cell growth by 11% and 24%, respectively (Table 8), which were about 7 times lower than the addition of THF.
compound,measurement,setting,value
"Nc1nc(=O)c2c([nH]1)NCC(CNc1ccc(C(=O)N[C@@H](CCC(=O)O)C(=O)O)cc1)=N2 [DHF, dihydrofolate]",Increment compared to control,DHF 1.8 μM,1.5%
same,"Maximum cell concentration, Average",DHF 1.8 μM,18.0 ×10^5 cells/ml
same,Increment compared to control,DHF 3.6 μM,11.1%
same,"Maximum cell concentration, Average",DHF 3.6 μM,19.7 ×10^5 cells/ml
same,Cell growth improvement lower than with the addition of THF,DHF 3.6 μM and 35.9 μM,about 7 times
same,Increment compared to control,DHF 35.9 μM,24.1%
same,"Maximum cell concentration, Average",DHF 35.9 μM,22.0 ×10^5 cells/ml
same,Improved cell growth,DHF 3.6 M,11%
same,Improved cell growth,DHF 35.9 M,24%
